# Test results reported in ChEMBL document CHEMBL1671722, “Comparative in vitro activity profiles of novel bis-indole antibacterials against gram-positive and gram-negative clinical isolates” (Antimicrob Agents Chemother, 2010).
# Tests used:
# Streptococcus pneumoniae [1] = test: Antimicrobial activity against penicillin-intermediate Streptococcus pneumoniae by broth microdilution method; type: functional
# Burkholderia cepacia = test: Antimicrobial activity against Burkholderia cepacia by broth microdilution method; type: functional
# Serratia marcescens = test: Antimicrobial activity against Serratia marcescens by broth microdilution method; type: functional
# Clostridioides difficile = test: Antimicrobial activity against Clostridium difficile by broth microdilution method; type: functional
# Enterococcus faecalis [2] = test: Antimicrobial activity against vancomycin-susceptible Enterococcus faecalis by broth microdilution method; type: functional
# Streptococcus pneumoniae [3] = test: Antimicrobial activity against penicillin-susceptible Streptococcus pneumoniae by broth microdilution method; type: functional
# Klebsiella pneumoniae [4] = test: Antimicrobial activity against Klebsiella pneumoniae by broth microdilution method; type: functional
# [5] = Cytotoxicity against HeLa cells after 3 days by MTS assay; type: cell-based; conditions: human
# Proteus mirabilis = test: Antimicrobial activity against Proteus mirabilis by broth microdilution method; type: functional
# Haemophilus influenzae = test: Antimicrobial activity against Haemophilus influenzae by broth microdilution method; type: functional
# Streptococcus pneumoniae [6] = test: Antimicrobial activity against penicillin-resistant Streptococcus pneumoniae by broth microdilution method; type: functional
# Staphylococcus aureus [7] = test: Antimicrobial activity against methicillin-susceptible Staphylococcus aureus by broth microdilution method; type: functional
# Pseudomonas aeruginosa = test: Antimicrobial activity against Pseudomonas aeruginosa by broth microdilution method; type: functional
# Staphylococcus aureus [8] = test: Antimicrobial activity against methicillin-resistant Staphylococcus aureus by broth microdilution method; type: functional
# Escherichia coli = test: Antimicrobial activity against Escherichia coli by broth microdilution method; type: functional
# Streptococcus agalactiae = test: Antimicrobial activity against Streptococcus agalactiae by broth microdilution method; type: functional
# [9] = system: Staphylococcus epidermidis; test: Antimicrobial activity against methicillin-resistant Staphylococcus epidermidis by broth microdilution method; type: functional
# Acinetobacter baumannii [10] = test: Antimicrobial activity against Acinetobacter baumannii by broth microdilution method; type: functional
# Enterococcus faecalis [11] = test: Antimicrobial activity against vancomycin-resistant Enterococcus faecalis by broth microdilution method; type: functional
# Klebsiella pneumoniae [12] = test: Antimicrobial activity against ESBL-production Klebsiella pneumoniae by broth microdilution method; type: functional
# Enterococcus faecium [13] = test: Antimicrobial activity against vancomycin-resistant Enterococcus faecium by broth microdilution method; type: functional
# Enterococcus faecium [14] = test: Antimicrobial activity against vancomycin-susceptible Enterococcus faecium by broth microdilution method; type: functional
# [15] = system: Staphylococcus epidermidis; test: Antimicrobial activity against methicillin-susceptible Staphylococcus epidermidis by broth microdilution method; type: functional
# Acinetobacter baumannii [16] = test: Antimicrobial activity against multiple dug-resistant Acinetobacter baumannii by broth microdilution method; type: functional
smiles,measurement,setting,value
c1cc2cc(-c3ccc(-c4cc5ccc(C6=NCCCN6)cc5[nH]4)cc3)[nH]c2cc1C1=NCCCN1,MIC50,Streptococcus pneumoniae [1],0.03 mg/L
same,MIC90,Streptococcus pneumoniae [1],0.03 mg/L
same,MIC50,Burkholderia cepacia,0.06 mg/L
same,MIC90,Burkholderia cepacia,0.12 mg/L
same,MIC,Serratia marcescens,0.12 mg/L
same,MIC50,Serratia marcescens,0.12 mg/L
same,MIC90,Serratia marcescens,0.25 mg/L
same,MIC50,Clostridioides difficile,0.06 mg/L
same,MIC90,Clostridioides difficile,0.12 mg/L
same,MIC50,Enterococcus faecalis [2],0.06 mg/L
same,MIC90,Enterococcus faecalis [2],0.06 mg/L
same,MIC50,Streptococcus pneumoniae [3],0.03 mg/L
same,MIC90,Streptococcus pneumoniae [3],0.03 mg/L
same,MIC50,Klebsiella pneumoniae [4],0.25 mg/L
same,MIC90,Klebsiella pneumoniae [4],0.5 mg/L
same,CC50 at 72 h,[5],4 mg/L
same,MIC50,Proteus mirabilis,1 mg/L
same,MIC90,Proteus mirabilis,2 mg/L
same,MIC50,Haemophilus influenzae,1 mg/L
same,MIC90,Haemophilus influenzae,4 mg/L
same,MIC50,Streptococcus pneumoniae [6],0.03 mg/L
same,MIC90,Streptococcus pneumoniae [6],0.06 mg/L
same,MIC50,Staphylococcus aureus [7],0.12 mg/L
same,MIC90,Staphylococcus aureus [7],0.5 mg/L
same,MIC50,Pseudomonas aeruginosa,0.25 mg/L
same,MIC90,Pseudomonas aeruginosa,1 mg/L
same,MIC50,Staphylococcus aureus [8],0.06 mg/L
same,MIC90,Staphylococcus aureus [8],0.12 mg/L
same,MIC50,Escherichia coli,0.12 mg/L
same,MIC90,Escherichia coli,0.25 mg/L
same,MIC,Streptococcus agalactiae,0.03 mg/L
same,MIC50,Streptococcus agalactiae,0.03 mg/L
same,MIC90,Streptococcus agalactiae,0.03 mg/L
same,MIC50,[9],0.015 mg/L
same,MIC90,[9],0.06 mg/L
same,MIC50,Acinetobacter baumannii [10],0.5 mg/L
same,MIC90,Acinetobacter baumannii [10],4 mg/L
same,MIC50,Enterococcus faecalis [11],0.015 mg/L
same,MIC90,Enterococcus faecalis [11],0.03 mg/L
same,MIC50,Klebsiella pneumoniae [12],0.12 mg/L
same,MIC90,Klebsiella pneumoniae [12],0.5 mg/L
same,MIC,Enterococcus faecium [13],0.004 mg/L
same,MIC50,Enterococcus faecium [13],0.004 mg/L
same,MIC90,Enterococcus faecium [13],0.004 mg/L
same,MIC50,Enterococcus faecium [14],0.004 mg/L
same,MIC90,Enterococcus faecium [14],0.015 mg/L
same,MIC50,[15],0.03 mg/L
same,MIC90,[15],0.06 mg/L
same,MIC50,Acinetobacter baumannii [16],2 mg/L
same,MIC90,Acinetobacter baumannii [16],4 mg/L
CCCCCCCCCC(=O)N[C@@H](Cc1c[nH]c2ccccc12)C(=O)N[C@H](CC(N)=O)C(=O)N[C@@H](CC(=O)O)C(=O)N[C@@H]1C(=O)NCC(=O)N[C@@H](CCCN)C(=O)N[C@@H](CC(=O)O)C(=O)N[C@H](C)C(=O)N[C@@H](CC(=O)O)C(=O)NCC(=O)N[C@H](CO)C(=O)N[C@@H]([C@H](C)CC(=O)O)C(=O)N[C@@H](CC(=O)c2ccccc2N)C(=O)O[C@@H]1C,MIC50,Streptococcus pneumoniae [1],0.06 mg/L
same,MIC90,Streptococcus pneumoniae [1],0.25 mg/L
same,MIC50,Enterococcus faecalis [2],1 mg/L
same,MIC90,Enterococcus faecalis [2],2 mg/L
same,MIC50,Streptococcus pneumoniae [3],0.06 mg/L
same,MIC90,Streptococcus pneumoniae [3],0.25 mg/L
same,MIC50,Streptococcus pneumoniae [6],0.06 mg/L
same,MIC90,Streptococcus pneumoniae [6],0.12 mg/L
same,MIC50,Staphylococcus aureus [7],0.5 mg/L
same,MIC90,Staphylococcus aureus [7],0.5 mg/L
same,MIC50,Staphylococcus aureus [8],0.25 mg/L
same,MIC90,Staphylococcus aureus [8],0.25 mg/L
same,MIC50,Streptococcus agalactiae,0.5 mg/L
same,MIC90,Streptococcus agalactiae,2 mg/L
same,MIC,[9],0.5 mg/L
same,MIC50,[9],0.5 mg/L
same,MIC90,[9],1 mg/L
same,MIC50,Enterococcus faecalis [11],0.5 mg/L
same,MIC90,Enterococcus faecalis [11],2 mg/L
same,MIC50,Enterococcus faecium [13],2 mg/L
same,MIC90,Enterococcus faecium [13],4 mg/L
same,MIC50,Enterococcus faecium [14],4 mg/L
same,MIC90,Enterococcus faecium [14],4 mg/L
same,MIC,[15],0.5 mg/L
same,MIC50,[15],0.5 mg/L
same,MIC90,[15],1 mg/L
CO/N=C(\C(=O)N[C@@H]1C(=O)N2C(C(=O)O)=C(COC(C)=O)CS[C@H]12)c1csc(N)n1 [CEFOTAXIME],MIC50,Haemophilus influenzae,1 mg/L
same,MIC90,Haemophilus influenzae,> 4 mg/L
O=C(O)c1cn(C2CC2)c2cc(N3CCNCC3)c(F)cc2c1=O [CIPROFLOXACIN],MIC50,Burkholderia cepacia,2 mg/L
same,MIC90,Burkholderia cepacia,2 mg/L
same,MIC50,Klebsiella pneumoniae [4],> 32 mg/L
same,MIC90,Klebsiella pneumoniae [4],> 32 mg/L
same,MIC50,Proteus mirabilis,2 mg/L
same,MIC90,Proteus mirabilis,> 8 mg/L
same,MIC,Pseudomonas aeruginosa,> 8 mg/L
same,MIC50,Pseudomonas aeruginosa,> 8 mg/L
same,MIC90,Pseudomonas aeruginosa,> 8 mg/L
same,MIC50,Escherichia coli,2 mg/L
same,MIC90,Escherichia coli,4 mg/L
same,MIC50,Acinetobacter baumannii [10],0.25 mg/L
same,MIC90,Acinetobacter baumannii [10],> 2 mg/L
same,MIC50,Klebsiella pneumoniae [12],> 8 mg/L
same,MIC90,Klebsiella pneumoniae [12],> 8 mg/L
same,MIC50,Acinetobacter baumannii [16],2 mg/L
same,MIC90,Acinetobacter baumannii [16],4 mg/L
CCC[C@@H]1C[C@@H](C(=O)N[C@@H]([C@H]2O[C@H](SC)[C@H](O)[C@@H](O)[C@H]2O)[C@H](C)Cl)N(C)C1 [CLINDAMYCIN],MIC50,Clostridioides difficile,4 mg/L
same,MIC90,Clostridioides difficile,> 8 mg/L
C[C@@H](O)[C@H]1C(=O)N2C(C(=O)O)=C(SCCNC=N)C[C@H]12 [IMIPENEM ANHYDROUS],MIC50,Streptococcus pneumoniae [1],0.03 mg/L
same,MIC90,Streptococcus pneumoniae [1],0.25 mg/L
same,MIC,Burkholderia cepacia,4 mg/L
same,MIC50,Burkholderia cepacia,4 mg/L
same,MIC90,Burkholderia cepacia,> 8 mg/L
same,MIC50,Serratia marcescens,4 mg/L
same,MIC90,Serratia marcescens,> 8 mg/L
same,MIC50,Clostridioides difficile,4 mg/L
same,MIC90,Clostridioides difficile,8 mg/L
same,MIC50,Enterococcus faecalis [2],1 mg/L
same,MIC90,Enterococcus faecalis [2],4 mg/L
same,MIC,Streptococcus pneumoniae [3],< 0.008 mg/L
same,MIC50,Streptococcus pneumoniae [3],< 0.008 mg/L
same,MIC90,Streptococcus pneumoniae [3],< 0.008 mg/L
same,MIC50,Klebsiella pneumoniae [4],0.12 mg/L
same,MIC90,Klebsiella pneumoniae [4],1 mg/L
same,MIC50,Proteus mirabilis,4 mg/L
same,MIC90,Proteus mirabilis,8 mg/L
same,MIC50,Streptococcus pneumoniae [6],0.25 mg/L
same,MIC90,Streptococcus pneumoniae [6],1 mg/L
same,MIC50,Staphylococcus aureus [7],0.015 mg/L
same,MIC90,Staphylococcus aureus [7],0.03 mg/L
same,MIC,Pseudomonas aeruginosa,0.05 mg/L
same,MIC50,Pseudomonas aeruginosa,1 mg/L
same,MIC90,Pseudomonas aeruginosa,> 8 mg/L
same,MIC50,Staphylococcus aureus [8],1 mg/L
same,MIC90,Staphylococcus aureus [8],8 mg/L
same,MIC50,Escherichia coli,0.25 mg/L
same,MIC90,Escherichia coli,0.25 mg/L
same,MIC,Streptococcus agalactiae,0.06 mg/L
same,MIC50,Streptococcus agalactiae,0.06 mg/L
same,MIC90,Streptococcus agalactiae,0.06 mg/L
same,MIC50,[9],8 mg/L
same,MIC90,[9],> 8 mg/L
same,MIC90,Acinetobacter baumannii [10],> 32 mg/L
same,MIC50,Enterococcus faecalis [11],2 mg/L
same,MIC90,Enterococcus faecalis [11],2 mg/L
same,MIC50,Klebsiella pneumoniae [12],0.25 mg/L
same,MIC90,Klebsiella pneumoniae [12],1 mg/L
same,MIC,Enterococcus faecium [13],8 mg/L
same,MIC50,Enterococcus faecium [13],8 mg/L
same,MIC90,Enterococcus faecium [13],8 mg/L
same,MIC50,Enterococcus faecium [14],> 8 mg/L
same,MIC90,Enterococcus faecium [14],> 8 mg/L
same,MIC,[15],0.015 mg/L
same,MIC50,[15],0.015 mg/L
same,MIC90,[15],0.015 mg/L
same,MIC50,Acinetobacter baumannii [16],4 mg/L
